Earlier results as cited in patent US20100190739A1, “Rapidly Dissolving Vitamin Formulation and Methods of Using the Same” (FLEMING AND COMPANY, PHARMACEUTICALS, priority 2008, published 2010).
Values belong to the compound of their own block, whether it stands above or below them.

Legend:
[1] = Institute of Medicine
[2] = not given; remark: listed apart in the source

Compound: [Cr] [Chromium, chromium]
Doses that can cause adverse reactions (some evidence): above 250 μg

Compound: Cc1ncc(C[n+]2csc(CCO)c2C)c(N)n1 [Example B1, thiamine]
Dose with no evidence of oral toxicity (doses as high as, taken for extended periods of time): 200 mg

Compound: Cc1ncc(CO)c(CO)c1O [Example B6, pyridoxine]
Dose showing potential damage to sensory nerves (long term study): 200 mg/day
Tolerable upper limit [1]: 100 mg/day

Fraction of dietary intake absorbed [2]: 3-5%
Compound: [Mn+2] [Manganese, manganese]
Tolerable upper limit [1]: 11 mg/day

Intake causing significant losses of copper (in vivo): above 500 μg/day
Compound: [Mo] [Molybdenum, molybdenum]

Compound: [Se] [Selenium, selenium]
Tolerable upper limit [1]: 0.4 mg/day

Compound: [Zn] [Zinc, zinc]
Doses at which acute toxicity can occur (as low as) (in vivo): ≥ 30 mg/day
Doses at which acute toxicity is more common (in vivo): exceeding 100 mg/day
Tolerable upper limit [1]: 40 mg/day

Compound: O=C(O)c1cccnc1 [niacin]
Tolerable upper limit [1]: 35 mg/day

Compound: cobalamin [Example B12]
Level at which toxicity has not been demonstrated (in vivo): 10,000 × the recommended daily allowance (RDA)
